The test system of this assay is blood glucose levels. As to the kind of experiment: Glucose challenge test in rats. It is filed as in vivo. Particulars: compared to control; p.o. 30 min before i.p. glucose challenge; non-fasted male Wistar rats. The method, then: A common way of testing for an effect of extracts or new chemical entities on blood glucose levels is the glucose challenge test (Verspohl, E. J.: Recommended testing in diabetes research. Planta Med 68 (7): 581-90, 2002) in which rats are given the extract, control, or a known antidiabetic substance with challenge an intraperitoneal (i.p.) dose of glucose. The extracts or extract PLUS creatine are given orally 30 min. before the glucose challenge. Blood samples are taken sublingual at time points 0, 15, 30, 60, and 120 minutes for the glucose challenge. This sampling scheme ensures to monitor both effects of extracts on the blood glucose levels after glucose challenge closely enough.
Male non-fasted Wistar rats weighing 250-300 g were purchased from Harlan (Indianapolis, Ind., U.S.A). […]
Blood was drawn at the appropriate time points from the sublingual vein after a short halothane anesthesia and stored at 4° C. with addition of heparin. […] The supernatant plasma was taken and analyzed using an autoanalyzer (Merck, Darmstadt). […]
Both percent and AUC data were analyzed by one-way ANOVA and Student-Newman-Keuls Multiple Comparison Test using Graphpad 4.0 Software, San Diego, USA. The AUC (area under the curve) was calculated using the trapezoidal rule without extensions beyond the last time point measured.

As to `CN(CC(=O)O)C(=N)N.O` [creatine monohydrate], the glucose disposal entry was “no effect”.

Source of the values: patent US20110123654A1, “SYNERGISTIC ENHANCEMENT OF CELLULAR ERGOGENIC NUTRIENT UPTAKE, LIKE CREATINE OR CARNITINE, WITH TARRAGON” (priority 2008, published 2011).
